Test results from patent US20070203121A1, “SUBSTITUTED INDOLE COMPOUNDS, THEIR PREPARATION AND USE IN MEDICAMENTS” (LABORATORIOS DEL DR. ESTEVE S.A, priority 2004, published 2007).

What follows are compounds tested against T1, 5HT6-human recombinant receptor (Homo sapiens, UniProt P50406) (assay: Binding to Serotonin Receptor 5-HT6 ([3H]-LSD displacement)). Conditions: membranes of HEK-293 cells expressing the receptor; radioligand [3H]-LSD 2.7 nM; 60 minutes at 37° C.; triplicate.
T1 construct: purchased Receptor Biology; host or cells: HEK-293 cells (membranes)
Description: I) Binding to Serotonin Receptor 5-HT6
Cell membranes of HEK-293 cells expressing the 5HT6-human recombinant receptor were supplied by Receptor Biology. In said membranes the receptor concentration is 2.18 pmol/mg protein and the protein concentration is 9.17 mg/ml. The experimental protocol follows the method of B. L. Roth et al. [B. L. Roth, S. C. Craigo, M. S. Choudhary, A. Uluer, F. J. Monsma, Y. Shen, H. Y. Meltzer, D. R. Sibley: Binding of Typical and Atypical Antipsychotic Agents to 5-Hydroxytryptamine-6 and Hydroxytryptamine-7 Receptors. The Journal of Pharmacology and Experimental Therapeutics, 1994, 268, 1403] with the following slight changes. The respective part of the literature description is hereby incorporated by reference and forms part of the disclosure.
The commercial membrane is diluted (1:40 dilution) with the binding buffer: 50 mM Tris-HCl, 10 mM MgCl2, 0.5 mM EDTA (pH 7.4). The radioligand used is [^3H]-LSD at a concentration of 2.7 nM with a final volume of 200 μl. Incubation is initiated by adding 100 μl of membrane suspension, (≈22.9 μg membrane protein), and is prolonged for 60 minutes at a temperature of 37° C. The incubation is ended by fast filtration in a Brandel Cell Harvester through fiber glass filters made by Schleicher & Schuell GF 3362 pretreated with a solution of polyethylenimine at 0.5%. The filters are washed three times with three milliliters of buffer Tris-HCl 50 mM pH 7.4. The filters are transferred to flasks and 5 ml of Ecoscint H liquid scintillation cocktail are added to each flask. The flasks are allowed to reach equilibrium for several hours before counting with a Wallac Winspectral 1414 scintillation counter. Non-specific binding is determined in the presence of 100 μM of serotonin. Tests were made in triplicate. The inhibition constants (Ki, nM) were calculated by non-linear regression analysis using the program EBDA/LIGAND described in Munson and Rodbard, Analytical Biochemistry, 1980, 107, 220, the respective part of which is hereby incorporated by reference and forms part of the disclosure.
The binding of the substituted indole compounds to the 5-HT6 receptor was determined as described above.

T1 sequence (P50406 whole entry): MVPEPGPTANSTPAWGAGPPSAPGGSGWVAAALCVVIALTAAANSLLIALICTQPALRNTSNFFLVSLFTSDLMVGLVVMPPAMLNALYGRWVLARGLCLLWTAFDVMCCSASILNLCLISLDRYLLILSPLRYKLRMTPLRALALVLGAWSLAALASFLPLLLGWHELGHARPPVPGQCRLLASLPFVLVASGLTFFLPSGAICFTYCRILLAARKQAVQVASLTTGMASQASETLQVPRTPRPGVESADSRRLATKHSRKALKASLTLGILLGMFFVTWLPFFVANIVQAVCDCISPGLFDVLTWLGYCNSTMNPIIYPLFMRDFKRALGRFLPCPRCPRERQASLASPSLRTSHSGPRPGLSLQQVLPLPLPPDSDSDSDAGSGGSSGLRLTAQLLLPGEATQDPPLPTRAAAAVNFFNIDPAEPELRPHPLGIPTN

Row | SMILES | Ki
1 | CN(C)C(=O)C(=O)c1c[nH]c2cccc(NS(=O)(=O)c3c(Cl)nc4sccn34)c12 [Example 13, 2-[4-(6-Chloro-imidazo[2,1-b]thiazole-5-sulfonylamino)-1H-indol-3-yl]-N,N-dimethyl-2-oxo-acetamide] | 161 nM
2 | CN(C)C(=O)C(=O)c1c[nH]c2ccc(NS(=O)(=O)c3ccc(Oc4ccccc4)cc3)cc12 [Example 20, N,N-Dimethyl-2-[5-[(4-phenoxy-phenyl)-1-sulfonylamino]-1H-indol-3-yl]-2-oxo-acetamide] | 113 nM
3 | CCN(CC)C(=O)C(=O)c1c[nH]c2ccc(NS(=O)(=O)c3c(Cl)nc4sccn34)cc12 [Example 9, 2-[5-(6-Chloro-imidazo[2,1-b]thiazole-5-sulfonylamino)-1H-indol-3-yl]-N,N-diethyl-2-oxo-acetamide] | 224 nM

These reach a lower Ki. Values come first.

Row | Ki | SMILES
4 | 18.4 nM | CN(C)C(=O)C(=O)c1c[nH]c2ccc(NS(=O)(=O)c3c(Cl)nc4sccn34)cc12 [Example 10, 2-[5-(6-Chloro-imidazo[2,1-b]thiazole-5-sulfonylamino)-1H-indol-3-yl]-N,N-dimethyl-2-oxo-acetamide]
5 | 52.8 nM | Cc1[nH]c2ccc(NS(=O)(=O)c3c(Cl)nc4sccn34)cc2c1C(=O)C(=O)N(C)C [Example 22, 2-(5-(6-chloroimidazo[2,1-b]thiazole-5-sulfonamido)-2-methyl-1H-indol-3-yl)-N,N-dimethyl-2-oxoacetamide]
